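1) Cells in 96-well plates. 2) Compound, 48 h, 5 concentrations. 3) Linear interpolation between surrounding doses. 4) Unreached endpoint = highest concentration. GI50 = concentration required for 50% inhibition of growth.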 The source made the active and inactive calls. No stated cut-off is given here; in the data, active = GI50 up to about 1.1 µM and inactive = higher.
Tests used:
Experiment in all cases: NCI-60 cell line screen, 48 h
A498 = system: A498
A549 = system: A549
ACHN = system: ACHN
CAKI-1 = system: CAKI-1
DU-145 = system: DU-145
HCC 2998 = system: HCC 2998
HCT-15 = system: HCT-15
HL-60 = system: HL-60
HOP-62 = system: HOP-62
HOP-92 = system: HOP-92
HT-29 = system: HT-29
K562 = system: K562
KM12 = system: KM12
LOX IMVI = system: LOX IMVI
M14 = system: M14
MDA-MB-231 = system: MDA-MB-231
MDA-MB-435 = system: MDA-MB-435
Malme-3M = system: Malme-3M
NCI-H226 = system: NCI-H226
NCI-H23 = system: NCI-H23
NCI-H460 = system: NCI-H460
NCI-H522 = system: NCI-H522
OVCAR-3 = system: OVCAR-3
OVCAR-4 = system: OVCAR-4
OVCAR-5 = system: OVCAR-5
RPMI-8226 = system: RPMI-8226
SF-268 = system: SF-268
SF-295 = system: SF-295
SF-539 = system: SF-539
SK-MEL-28 = system: SK-MEL-28
SK-MEL-5 = system: SK-MEL-5
SN12C = system: SN12C
SNB-75 = system: SNB-75
SR = system: SR
SW-620 = system: SW-620
TK-10 = system: TK-10
UACC-257 = system: UACC-257
UACC-62 = system: UACC-62
UO-31 = system: UO-31
CCRF-CEM = system: CCRF-CEM
EKVX = system: EKVX
IGROV-1 = system: IGROV-1
MCF7 = system: MCF7
MDA-N = system: MDA-N
MOLT-4 = system: MOLT-4
NCI/ADR-RES = system: NCI/ADR-RES
OVCAR-8 = system: OVCAR-8
PC-3 = system: PC-3
U-251 = system: U-251
786-0 = system: 786-0
COLO 205 = system: COLO 205
HCT-116 = system: HCT-116
RXF 393 = system: RXF 393
SK-MEL-2 = system: SK-MEL-2
SK-OV-3 = system: SK-OV-3
SNB-19 = system: SNB-19
T47D = system: T47D

C[N+](C)(C)CCOP(=O)(O)OP(=O)([O-])OCC1CCC(n2ccc(N)nc2=O)O1 (centres undefined)
GI50 (A498): > 80.9 µM (inactive) | GI50 (A549): > 100 µM (inactive) | GI50 (ACHN): > 100 µM (inactive) | GI50 (CAKI-1): > 100 µM (inactive) | GI50 (DU-145): > 100 µM (inactive) | GI50 (HCC 2998): > 100 µM (inactive) | GI50 (HCT-15): > 100 µM | GI50 (HL-60): > 100 µM (inactive) | GI50 (HOP-62): > 100 µM (inactive) | GI50 (HOP-92): > 100 µM (inactive) | GI50 (HT-29): > 100 µM (inactive) | GI50 (K562): > 100 µM (inactive) | GI50 (KM12): > 100 µM (inactive) | GI50 (LOX IMVI): > 100 µM (inactive) | GI50 (M14): > 100 µM (inactive) | GI50 (MDA-MB-231): 77.6 µM (inactive) | GI50 (MDA-MB-435): > 100 µM (inactive) | GI50 (Malme-3M): > 100 µM (inactive) | GI50 (NCI-H226): > 100 µM (inactive) | GI50 (NCI-H23): > 100 µM (inactive) | GI50 (NCI-H460): > 100 µM (inactive) | GI50 (NCI-H522): > 100 µM (inactive) | GI50 (OVCAR-3): > 100 µM (inactive) | GI50 (OVCAR-4): > 100 µM (inactive) | GI50 (OVCAR-5): > 100 µM (inactive) | GI50 (RPMI-8226): > 100 µM (inactive) | GI50 (SF-268): > 100 µM (inactive) | GI50 (SF-295): > 100 µM (inactive) | GI50 (SF-539): > 100 µM (inactive) | GI50 (SK-MEL-28): > 100 µM (inactive) | GI50 (SK-MEL-5): > 100 µM (inactive) | GI50 (SN12C): > 100 µM (inactive) | GI50 (SNB-75): > 100 µM (inactive) | GI50 (SR): > 100 µM (inactive) | GI50 (SW-620): > 100 µM (inactive) | GI50 (TK-10): > 100 µM (inactive) | GI50 (UACC-257): > 100 µM (inactive) | GI50 (UACC-62): > 100 µM (inactive) | GI50 (UO-31): > 100 µM (inactive)

Cc1ccc(S(=O)(=O)N2CCN3CCN(CCN(C)CCN4CCN(CC4)CCN(S(=O)(=O)c4ccc(C)cc4)CCN(S(=O)(=O)c4ccc(C)cc4)CCN(S(=O)(=O)c4ccc(C)cc4)CCN(S(=O)(=O)c4ccc(C)cc4)CCN4CCN(CCN(C)CCN5CCN(CC5)CCN(S(=O)(=O)c5ccc(C)cc5)CCN(S(=O)(=O)c5ccc(C)cc5)CCN(S(=O)(=O)c5ccc(C)cc5)CC2)CC4)CC3)cc1
GI50 (A549): 1.82 µM (inactive) | GI50 (ACHN): 1.79 µM (inactive) | GI50 (CCRF-CEM): 0.303 µM (active) | GI50 (EKVX): 2.33 µM (inactive) | GI50 (HCC 2998): 0.766 µM (active) | GI50 (HCT-15): 1.49 µM | GI50 (HL-60): 0.407 µM (active) | GI50 (HOP-92): 1.04 µM (active) | GI50 (HT-29): 0.208 µM (active) | GI50 (IGROV-1): 1.97 µM (inactive) | GI50 (K562): 0.248 µM (active) | GI50 (KM12): 0.541 µM (active) | GI50 (M14): 1.95 µM (inactive) | GI50 (MCF7): 1.5 µM (inactive) | GI50 (MDA-N): 1.52 µM (inactive) | GI50 (MOLT-4): 0.437 µM (active) | GI50 (NCI-H460): 0.553 µM (active) | GI50 (NCI/ADR-RES): > 100 µM (inactive) | GI50 (OVCAR-5): 1.87 µM (inactive) | GI50 (OVCAR-8): 2.1 µM (inactive) | GI50 (PC-3): 1.85 µM (inactive) | GI50 (RPMI-8226): 0.308 µM (active) | GI50 (SF-268): 1.14 µM (inactive) | GI50 (SF-539): 2.06 µM (inactive) | GI50 (SK-MEL-5): 1.63 µM (inactive) | GI50 (SNB-75): 1.35 µM (inactive) | GI50 (SR): 0.254 µM (active) | GI50 (SW-620): 1.05 µM (active) | GI50 (U-251): 0.235 µM (active) | GI50 (UACC-257): 1.77 µM (inactive)

CCOC(=O)c1c(N=P(c2ccccc2)(c2ccccc2)c2ccccc2)nnc(-c2ccccc2)c1-c1ccccc1
GI50 (786-0): > 100 µM (inactive) | GI50 (A498): 25.9 µM (inactive) | GI50 (A549): > 100 µM (inactive) | GI50 (ACHN): > 100 µM (inactive) | GI50 (CCRF-CEM): > 100 µM (inactive) | GI50 (COLO 205): > 100 µM (inactive) | GI50 (DU-145): > 100 µM (inactive) | GI50 (EKVX): > 100 µM (inactive) | GI50 (HCC 2998): > 100 µM (inactive) | GI50 (HCT-116): > 100 µM (inactive) | GI50 (HCT-15): > 100 µM | GI50 (HL-60): > 100 µM (inactive) | GI50 (HOP-62): > 100 µM (inactive) | GI50 (HOP-92): 5.52 µM (inactive) | GI50 (HT-29): > 100 µM (inactive) | GI50 (IGROV-1): > 100 µM (inactive) | GI50 (K562): > 100 µM (inactive) | GI50 (KM12): > 100 µM (inactive) | GI50 (LOX IMVI): > 100 µM (inactive) | GI50 (M14): > 100 µM (inactive) | GI50 (MCF7): > 100 µM (inactive) | GI50 (MDA-MB-231): > 100 µM (inactive) | GI50 (MDA-MB-435): > 100 µM (inactive) | GI50 (MDA-N): 92.5 µM (inactive) | GI50 (MOLT-4): > 100 µM (inactive) | GI50 (Malme-3M): > 100 µM (inactive) | GI50 (NCI-H226): > 100 µM (inactive) | GI50 (NCI-H23): > 100 µM (inactive) | GI50 (NCI-H460): > 100 µM (inactive) | GI50 (NCI-H522): > 100 µM (inactive) | GI50 (NCI/ADR-RES): > 100 µM (inactive) | GI50 (OVCAR-3): > 100 µM (inactive) | GI50 (OVCAR-4): > 100 µM (inactive) | GI50 (OVCAR-5): > 100 µM (inactive) | GI50 (OVCAR-8): > 100 µM (inactive) | GI50 (PC-3): > 100 µM (inactive) | GI50 (RXF 393): 61.1 µM (inactive) | GI50 (SF-268): > 100 µM (inactive) | GI50 (SF-295): > 100 µM (inactive) | GI50 (SF-539): > 100 µM (inactive) | GI50 (SK-MEL-28): > 100 µM (inactive) | GI50 (SK-MEL-2): 43.8 µM (inactive) | GI50 (SK-MEL-5): > 100 µM (inactive) | GI50 (SK-OV-3): > 100 µM (inactive) | GI50 (SN12C): > 100 µM (inactive) | GI50 (SNB-19): 71.3 µM (inactive) | GI50 (SNB-75): 6.68 µM (inactive) | GI50 (SR): > 100 µM (inactive) | GI50 (SW-620): > 100 µM (inactive) | GI50 (T47D): > 100 µM (inactive) | GI50 (TK-10): > 100 µM (inactive) | GI50 (U-251): > 100 µM (inactive) | GI50 (UACC-257): > 100 µM (inactive) | GI50 (UACC-62): > 100 µM (inactive) | GI50 (UO-31): 1.66 µM (inactive)

O=P(O)(Cc1ccccc1)OCC1(O)OCC(O)C(O)C1O (centres undefined)
GI50 (786-0): > 10 µM (inactive) | GI50 (A549): > 10 µM (inactive) | GI50 (ACHN): > 10 µM (inactive) | GI50 (CAKI-1): > 10 µM (inactive) | GI50 (COLO 205): > 10 µM (inactive) | GI50 (HOP-62): > 10 µM (inactive) | GI50 (IGROV-1): > 10 µM (inactive) | GI50 (K562): > 10 µM (inactive) | GI50 (M14): > 10 µM (inactive) | GI50 (MCF7): > 10 µM (inactive) | GI50 (MDA-MB-435): > 10 µM (inactive) | GI50 (Malme-3M): > 10 µM (inactive) | GI50 (NCI-H23): > 10 µM (inactive) | GI50 (NCI-H460): > 10 µM (inactive) | GI50 (NCI/ADR-RES): > 10 µM (inactive) | GI50 (OVCAR-4): > 10 µM (inactive) | GI50 (OVCAR-5): > 10 µM (inactive) | GI50 (RPMI-8226): > 10 µM (inactive) | GI50 (RXF 393): > 10 µM (inactive) | GI50 (SF-268): > 10 µM (inactive) | GI50 (SK-MEL-28): > 10 µM (inactive) | GI50 (SK-MEL-2): > 10 µM (inactive) | GI50 (SK-MEL-5): > 10 µM (inactive) | GI50 (SK-OV-3): > 10 µM (inactive) | GI50 (SNB-75): > 10 µM (inactive) | GI50 (SR): > 10 µM (inactive) | GI50 (SW-620): > 10 µM (inactive) | GI50 (T47D): > 10 µM (inactive) | GI50 (U-251): > 10 µM (inactive) | GI50 (UACC-62): > 10 µM (inactive)
